In US20030216327A1, “Sapogenin-based treatment” (L'OREAL, priority 2002, published 2003):

Test system: immortalized human sebocytes derived from the SZ95 line
Assay: Lipid production by immortalized human sebocytes in culture (Nile Red fluorescence)
Format: cell-based
Details: treatment for two days; for VARIATION IN LIPIDS (compared to control): total lipids (neutral + non-neutral), Nile Red, 0.1% DMSO
Procedure: Hecogenin and diosgenin, provided by SIGMA, were tested on a model of immortalized human sebocytes in culture, derived from the SZ95 line described in C. C. Zouboulis, H. Seltmann, H. Neitzel & C. E. Orfanos, Establishment and Characterization of an Immortalized Human Sebaceous Gland Cell Line, J. Invest. Dermatol., 113, 1011-1020 (1999).
The test consisted in measuring the amount of lipids produced by the sebocytes of the line (at confluency), in the presence or absence of active agents, diluted in DMSO such that the final amount of DMSO in the culture medium is 0.1%. After treatment for two days, the adherent cells are treated with Nile Red (1 μg/ml). The lipid content is then quantified by measuring the fluorescence of the dye (two excitation/emission couples: 485-540 nm for the neutral lipids and 540-620 nm for the non-neutral lipids). The results are given for the total lipids (combination of the two measurements).
The experiment was carried out in triplicate (assay products and control) in a 96-well plate and repeated three times.

Compound: C[C@]12CC[C@H](O)CC1=CC[C@@H]1[C@@H]2CC[C@]2(C)C(=O)CC[C@@H]12 [DHEA]
- activity on lipid content (lipogenesis) (0.1 μM, same test, total lipids): inactive
- increase in the lipid content of the sebum (10 μM, same test, total lipids): 13%

Compound: C[C@@H]1CC[C@@]2(OC1)O[C@H]1C[C@H]3[C@@H]4CC=C5C[C@@H](O)CC[C@]5(C)[C@H]4CC[C@]3(C)[C@H]1[C@@H]2C [Diosgenin]
- VARIATION IN LIPIDS (compared to control) (0.1 μM): +4%

Compound: C[C@@H]1CC[C@@]2(OC1)O[C@H]1C[C@H]3[C@@H]4CC[C@@]5(C)C[C@@H](O)CC[C@]5(C)[C@H]4CC(=O)[C@]3(C)[C@H]1[C@@H]2C [Hecogenin]
- VARIATION IN LIPIDS (compared to control) (0.1 μM): +5%
